Laboratory results taken from patent US11208400B2, “Substituted 6-(1H-pyrazol-1-yl)pyrimidin-4-amine derivatives and uses thereof” (Bayer Aktiengesellschaft, priority 2016, dated 2021).

The molecules below were run against T1, human Npt2a (Homo sapiens, UniProt Q06495) (assay: Npt2a activity cell based assay, membrane potential dye, CHO T-REx hNpt2a cells). Conditions: doxycycline-induced, depolarization by sodium phosphate influx, average or median values if tested more than once.
T1 construct: expressed in transfected cells
T1 sequence (Q06495 1-639): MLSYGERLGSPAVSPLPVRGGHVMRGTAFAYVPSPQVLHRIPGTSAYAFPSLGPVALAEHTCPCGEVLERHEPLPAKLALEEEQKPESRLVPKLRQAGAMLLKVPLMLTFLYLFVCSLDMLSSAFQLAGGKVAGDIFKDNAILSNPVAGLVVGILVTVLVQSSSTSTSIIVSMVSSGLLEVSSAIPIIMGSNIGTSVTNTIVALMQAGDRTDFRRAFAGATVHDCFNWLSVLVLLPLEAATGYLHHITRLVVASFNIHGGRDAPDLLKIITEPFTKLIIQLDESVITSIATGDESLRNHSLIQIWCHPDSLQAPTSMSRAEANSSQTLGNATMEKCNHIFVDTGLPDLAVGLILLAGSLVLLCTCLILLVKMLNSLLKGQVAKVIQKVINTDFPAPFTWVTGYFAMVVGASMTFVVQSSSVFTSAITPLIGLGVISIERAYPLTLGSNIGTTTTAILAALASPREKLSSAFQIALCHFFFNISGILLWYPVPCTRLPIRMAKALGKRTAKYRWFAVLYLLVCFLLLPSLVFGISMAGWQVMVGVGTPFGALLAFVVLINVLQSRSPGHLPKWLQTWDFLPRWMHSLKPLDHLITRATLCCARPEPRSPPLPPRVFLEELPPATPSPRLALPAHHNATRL
Experimental: For measuring Npt2a activity in a cell based assay, a stable CHO cell line with inducible Npt2a expression was generated. Therefore, CHO T-Rex cells (life technologies cat. R718-07) were stably transfected with doxycycline-inducible human NPT2a (pcDNA5TO-hNpt2a). The obtained CHO T-REx hNpt2a cells were routinely cultured in Dulbecco's MEM/F12 (4.5 g/l Glucose, Gibco cat. 21331-020; 500 mL) supplemented with 10 ml Glutamax 100×, Sodium pyruvate (7 mL of 100 mM solution), HEPES (10 mL of 1 M solution), Sodium bicarbonate (10 mL of 7.5% solution), 10% Fetal Bovine Serum Tetracycline free (Clontech cat. 631106, 500 ml), Penicillin-Streptomycin (5 mL of 100× Solution), Blasticidin 10 μg/mL and 400 μg/mL Hygromycin.
Activity of Npt2a was detected by following depolarization of cellular membrane potential by influx of sodium phosphate using fluorescent membrane potential dye kit BLUE (Molecular devices cat. R8034). For Npt2a activity measurements, CHO T-Rex hNpt2a cells were seeded into 1536 well microtiter plates (GREINER Bio-One cat. 782092) with 750 cells/well in 7 μL/w of complete medium (2% Tetracycline-free FBS, 2% Poly-D-Lysine) without selective agents+Doxycycline 0.5 μg/mL to induce Npt2a gene expression, and grown for 24 h at 37° C., 5% carbon dioxide.
On the day of experiment a 1×MPdye Loading Solution was freshly prepared by re-suspending 15 mg of Blue MPdye powder in 10 mL of NHE buffer sodium-free (140 mM N-Methyl-D-glucamine, 5.4 mM KCl, 1 mM CaCl2, 11 mM D(±)-Glucose water free, 1.2 mM MgCl2, 10 mM HEPES; pH 7.4 (adjusted with hydrochloric acid); sterile filtered). 5 μl medium was removed from plates by robotic manipulation, then 5 μL/well of sodium-free NHE buffer was added. After incubation for 2 min, this washing step was repeated once. Then, 5 μL/w of buffer was removed from plates and cells were incubated for 5 min at room temperature with 5 μL/w of MPdye Loading Solution (1× in Sodium-free NHE Buffer). Test compounds were added to the cells at final test concentrations between 50 μM and 1 nM (0.6 μL/well, final DMSO 0.6%, prepared in MPDye Loading Solution) and incubated for 5 min at room temperature.
Plates were analyzed with an in house CCD camera device using a λexc 510-545 nm/λem 565-625 nm filter. Fluorescence was detected for 15 sec (background measurement M1). Activity of Npt2a was triggered by addition of 2 μL/well of 30 mM Na+ and 1 mM phosphate (prepared in a mixture of NHE Buffer Na+ free and NHE Buffer 140 mM Na+). Fluorescence was followed for 2-3 min (depolarization measurement M2). Data was normalized to cell number and dye loading efficiency by calculating M2/M1. This quotient was plotted against test compound concentration. Graph Pad Prism or equivalent in house software was used to create sigmoidal dose-response curves (variable slope) and determine IC50 values.
`COc1c(-c2ccc(C#N)cc2)nn(CC2CC2)c1Nc1cc(-n2nc(C)c(C(C)O)c2C)ncn1` (single isomer, unassigned) [Example 332, 4-{1-(cyclopropylmethyl)-5-[(6-{4-[1-hydroxyethyl]-3,5-dimethyl-1H-pyrazol-1-yl}pyrimidin-4-yl)amino]-4-methoxy-1H-pyrazol-3-yl}benzonitrile] showed an IC50 of 1900 nM.
`COc1c(-c2ccc(C#N)cc2)nn(CC2CC2)c1Nc1cc(-n2nc(C)c(C(C)OC)c2C)ncn1` (single isomer, unassigned) [Example 334, 4-{1-(cyclopropylmethyl)-4-methoxy-5-[(6-{4-[1-methoxyethyl]-3,5-dimethyl-1H-pyrazol-1-yl}pyrimidin-4-yl)amino]-1H-pyrazol-3-yl}benzonitrile] was tested, and the IC50 was 41 nM.
In the case of `COc1c(-c2ccc(C#N)cc2)nn(CC2CC2)c1Nc1cc(-n2nc(C)c(C(C)OC)c2C)ncn1` (single isomer, unassigned) [Example 335], the IC50 is reported as 51 nM.
`COC(C)c1c(C)nn(-c2cc(Nc3c(C)c(-c4ccc(C#N)cc4)nn3C)ncn2)c1C` (single isomer, unassigned) [Example 339, 4-{5-[(6-{4-[1-methoxyethyl]-3,5-dimethyl-1H-pyrazol-1-yl}pyrimidin-4-yl)amino]-1,4-dimethyl-1H-pyrazol-3-yl}benzonitrile] showed an IC50 of 8 nM.
`COC(C)c1c(C)nn(-c2cc(Nc3c(C)c(-c4ccc(C#N)cc4)nn3C)ncn2)c1C` (single isomer, unassigned) [Example 340, 4-{5-[(6-{4-[1-methoxyethyl]-3,5-dimethyl-1H-pyrazol-1-yl}pyrimidin-4-yl)amino]-1,4-dimethyl-1H-pyrazol-3-yl}benzonitrile] gave an IC50 of 12 nM.
`COC(C)c1c(C)nn(-c2cc(Nc3nn(C)c(-c4ccc(F)cc4)c3C)ncn2)c1C` (single isomer, unassigned) [Example 344, N-[5-(4-fluorophenyl)-1,4-dimethyl-1H-pyrazol-3-yl]-6-{4-[1-methoxyethyl]-3,5-dimethyl-1H-pyrazol-1-yl}pyrimidin-4-amine] showed an IC50 of 5 nM.
Molecule `COC(C)c1c(C)nn(-c2cc(Nc3nn(C)c(-c4ccc(F)cc4)c3C)ncn2)c1C` (single isomer, unassigned) [Example 345, N-[5-(4-fluorophenyl)-1,4-dimethyl-1H-pyrazol-3-yl]-6-{4-[1-methoxyethyl]-3,5-dimethyl-1H-pyrazol-1-yl}pyrimidin-4-amine] has an IC50 of 7 nM.
`Cc1nn(-c2cc(Nc3c(C)c(-c4ccc(C#N)cc4)nn3CC3CC3)ncn2)c(C)c1C(O)C(F)(F)F` (single isomer, unassigned) [Example 359, 4-{1-(cyclopropylmethyl)-5-[(6-{3,5-dimethyl-4-[2,2,2-trifluoro-1-hydroxyethyl]-1H-pyrazol-1-yl}pyrimidin-4-yl)amino]-4-methyl-1H-pyrazol-3-yl}benzonitrile] showed an IC50 of 15 nM.
In the case of `Cc1nn(-c2cc(Nc3c(C)c(-c4ccc(C#N)cc4)nn3CC3CC3)ncn2)c(C)c1C(O)C(F)(F)F` (single isomer, unassigned) [Example 360, 4-{1-(cyclopropylmethyl)-5-[(6-{3,5-dimethyl-4-[(1 S)-2,2,2-trifluoro-1-hydroxyethyl]-1H-pyrazol-1-yl}pyrimidin-4-yl)amino]-4-methyl-1H-pyrazol-3-yl}benzonitrile], the IC50 is reported as 6 nM.
Molecule `Cc1cc(C)n(-c2cc(Nc3c(C)c(-c4ccc(F)cc4)nn3CC(O)C3CC3)ncn2)n1` (single isomer, unassigned) [Example 370, 1-cyclopropyl-2-[5-{[6-(3,5-dimethyl-1H-pyrazol-1-yl)pyrimidin-4-yl]amino}-3-(4-fluorophenyl)-4-methyl-1H-pyrazol-1-yl]ethanol] has an IC50 of 2400 nM.
`Cc1cc(C)n(-c2cc(Nc3c(C)c(-c4ccc(F)cc4)nn3CC(O)C3CC3)ncn2)n1` (single isomer, unassigned) [Example 371, 1-cyclopropyl-2-[5-{[6-(3,5-dimethyl-1H-pyrazol-1-yl)pyrimidin-4-yl]amino}-3-(4-fluorophenyl)-4-methyl-1H-pyrazol-1-yl]ethanol] was tested, and the IC50 was 240 nM.
In the case of `Cc1nn(-c2cc(Nc3c(C)c(-c4ccc(F)cc4)nn3CC3CC3)ncn2)c(C)c1C(O)C(F)(F)F` (single isomer, unassigned) [Example 375, 1-[1-(6-{[1-(cyclopropylmethyl)-3-(4-fluorophenyl)-4-methyl-1H-pyrazol-5-yl]amino}pyrimidin-4-yl)-3,5-dimethyl-1H-pyrazol-4-yl]-2,2,2-trifluoroethanol], the IC50 is reported as 40 nM.
For `Cc1nn(-c2cc(Nc3c(C)c(-c4ccc(F)cc4)nn3CC3CC3)ncn2)c(C)c1C(O)C(F)(F)F` (single isomer, unassigned) [Example 376, 1-[1-(6-{[1-(cyclopropylmethyl)-3-(4-fluorophenyl)-4-methyl-1H-pyrazol-5-yl]amino}pyrimidin-4-yl)-3,5-dimethyl-1H-pyrazol-4-yl]-2,2,2-trifluoroethanol], the IC50 was 8 nM.
`Cc1nn(-c2cc(Nc3c(C)c(-c4ccc(F)cc4)nn3CC3CC3)ncn2)c(C)c1C(O)C1CC1` (single isomer, unassigned) [Example 419, cyclopropyl[1-(6-{[1-(cyclopropylmethyl)-3-(4-fluorophenyl)-4-methyl-1H-pyrazol-5-yl]amino}pyrimidin-4-yl)-3,5-dimethyl-1H-pyrazol-4-yl]methanol] gave an IC50 of 14 nM.
In the case of `Cc1nn(-c2cc(Nc3c(C)c(-c4ccc(F)cc4)nn3CC3CC3)ncn2)c(C)c1C(O)C1CC1` (single isomer, unassigned) [Example 420, cyclopropyl[1-(6-{[1-(cyclopropylmethyl)-3-(4-fluorophenyl)-4-methyl-1H-pyrazol-5-yl]amino}pyrimidin-4-yl)-3,5-dimethyl-1H-pyrazol-4-yl]methanol], the IC50 is reported as 24 nM.
In the case of `Cc1nn(-c2cc(Nc3c(C)c(-c4ccc(C(F)F)cc4)nn3CC3CC3)ncn2)c(C)c1C(O)C1CC1` (single isomer, unassigned) [Example 495, Cyclopropyl {1-[6-({1-(cyclopropylmethyl)-3-[4-(difluoromethyl)phenyl]-4-methyl-1H-pyrazol-5-yl}amino)pyrimidin-4-yl]-3,5-dimethyl-1H-pyrazol-4-yl}methanol], the IC50 is reported as 11 nM.
Work on `Cc1nn(-c2cc(Nc3c(C)c(-c4ccc(C(F)F)cc4)nn3CC3CC3)ncn2)c(C)c1C(O)C1CC1` (single isomer, unassigned) [Example 496, Cyclopropyl {1-[6-({1-(cyclopropylmethyl)-3-[4-(difluoromethyl)phenyl]-4-methyl-1H-pyrazol-5-yl}amino)pyrimidin-4-yl]-3,5-dimethyl-1H-pyrazol-4-yl}methanol] yielded an IC50 of 230 nM.
For `Cc1c(-c2ccc(F)cc2)nn(CC2CC2)c1Nc1cc(-n2nc3c(c2C)C(C)(O)CC3)ncn1` (single isomer, unassigned) [Example 515, 2-(6-{[1-(cyclopropylmethyl)-3-(4-fluorophenyl)-4-methyl-1H-pyrazol-5-yl]amino}pyrimidin-4-yl)-3,4-dimethyl-2,4,5,6-tetrahydrocyclopenta[c]pyrazol-4-ol], the IC50 was 110 nM.
